As usually defined, the pIC50 is −log10 of the IC50, conventionally taken in molar units.

Structures are written as SMILES. pIC50: −log10 of the molar value. Some results are limits rather than exact numbers.

Sequence of DOT1L(1-416) (Q8TEK3 1-416): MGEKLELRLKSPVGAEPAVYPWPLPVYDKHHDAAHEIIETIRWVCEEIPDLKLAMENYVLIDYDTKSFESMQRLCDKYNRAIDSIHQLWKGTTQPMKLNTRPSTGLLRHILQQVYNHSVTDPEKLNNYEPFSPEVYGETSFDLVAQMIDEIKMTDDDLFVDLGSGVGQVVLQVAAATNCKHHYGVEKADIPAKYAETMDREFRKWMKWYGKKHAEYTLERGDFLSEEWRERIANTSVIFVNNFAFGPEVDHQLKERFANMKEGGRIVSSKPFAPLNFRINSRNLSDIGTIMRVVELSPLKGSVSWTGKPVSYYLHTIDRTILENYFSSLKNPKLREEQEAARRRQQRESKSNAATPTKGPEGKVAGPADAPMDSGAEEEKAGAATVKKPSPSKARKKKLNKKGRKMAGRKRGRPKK

One test addresses DOT1L(1-416) (Homo sapiens, UniProt Q8TEK3). Kind of test: Determination of IC50: DOT1L(1-416) methyltransferase assay, 3H-SAM, oligonucleosome substrate, Flashplate. Type of test: biochemical. The note with it: DOT1L IC50, class symbols. The method, then:
Determination of IC50. Test compounds were serially diluted 3 fold in DMSO for 10 points and 1 μl was plated in a 384 well microtiter plate. […] 10 μl per well of substrate mix (same assay buffer with 200 nM S-[methyl-^3H]-adenosyl-L methionine, 600 nM of unlabeled […], and 20 nM oligonueleosome) was added to initiate the reaction. Reaction was incubated for 120 minutes at room temperature and quenched with 10 μl per well of 100 μM S-methyl-adenosyl-L methionine. For detection, substrate from 50 μl of reaction was immobilized on a 384 well Streptavidin coated Flashplate (Perkin Elmer) (also coated with 0.2% polyethyleneimine) and read on a Top Count scintillation counter (Perkin Elmer).
Turning to `CC(C)[N+]([O-])(C[C@H]1O[C@@H](n2cnc3c(N)ncnc32)[C@H](O)[C@@H]1O)[C@H]1C[C@@H](CCc2nc3cc(C(C)(C)C)ccc3[nH]2)C1` (stereo partly drawn) [Compound 106, (1r,3S)-N-(((2R,3S,4R,5R)-5-(6-amino-9H-purin-9-yl)-3,4-dihydroxy-tetrahydrofuran-2-yl)methyl)-3-(2-(5-(tert-butyl)-1H-benzo[d]imidazol-2-yl)ethyl)-N-isopropyl-cyclobutanamine oxide], the pIC50 was over 7.00.

Staying with this test, now noted: class symbols; read-out: DOT1L IC50.
For `CC(C)N(C[C@H]1O[C@@H](n2cnc3c(N)ncnc32)[C@H](O)[C@@H]1O)[C@H]1C[C@H](CCc2nc3cc(Cl)c(C(F)(F)F)cc3[nH]2)C1` [Compound 4, (2R,3R,4S,5R)-2-(6-amino-9H-purin-9-yl)-5-((((1s,3R)-3-(2-(5-chloro-6-(trifluoromethyl)-1H-benzo[d]imidazol-2-yl)ethyl)cyclobutyl)(isopropyl)amino)methyl)tetrahydrofuran-3,4-diol], the pIC50 was over 7.00.

In the case of `CN(C[C@H]1C[C@@H](n2ccc3c(N)ncnc32)[C@H](O)[C@@H]1O)C1CC(CCc2nc3cc(C(F)(F)F)ccc3[nH]2)C1` (stereo partly drawn) [Compound 13, (1R,2S,3R,5R)-3-(4-amino-7H-pyrrolo[2,3-d]pyrimidin-7-yl)-5-((methyl(3-(2-(5-(trifluoromethyl)-1H-benzo[d]imidazol-2-yl)ethyl)cyclobutyl)amino)methyl)cyclopentane-1,2-diol], the pIC50 was over 7.00.

For `CC(C)CN(C[C@H]1C[C@@H](n2ccc3c(N)ncnc32)[C@H](O)[C@@H]1O)[C@H]1C[C@@H](CCc2nc3cc(C(C)(C)C)ccc3[nH]2)C1` [Compound 53, (1R,2S,3R,5R)-3-(4-amino-7H-pyrrolo[2,3-d]pyrimidin-7-yl)-5-((((1r,3S)-3-(2-(5-(tert-butyl)-1H-benzo[d]imidazol-2-yl)ethyl)cyclobutyl)(isobutyl)amino)methyl)cyclopentane-1,2-diol], the pIC50 was over 7.00.

Regarding `CN(C[C@H]1O[C@@H](n2cnc3c(N)ncnc32)[C@H](O)[C@@H]1O)C1CC(CCc2nc3cc(C4COC4)ccc3[nH]2)C1` (stereo partly drawn) [Compound 64, (2R,3R,4S,5R)-2-(6-amino-9H-purin-9-yl)-5-((methyl(3-(2-(5-(oxetan-3-yl)-1H-benzo[d]imidazol-2-yl)ethyl)cyclobutyl)amino)methyl)tetrahydrofuran-3,4-diol], the pIC50 was 6.00 to 7.00.

Take `CN(C[C@H]1C[C@@H](n2ccc3c(N)ncnc32)[C@H](O)[C@@H]1O)[C@H]1C[C@@H](CCc2nc3cc(Br)ccc3[nH]2)C1` [Compound 47, (1R,2S,3R,5R)-3-(4-amino-7H-pyrrolo[2,3-d]pyrimidin-7-yl)-5-((((1r,38)-3-(2-(5-bromo-1H-benzo[d]imidazol-2-yl)ethyl)cyclobutyl)(methyl)amino)methyl)cyclopentane-1,2-diol]: the pIC50 was over 7.00.

With `CN(C[C@H]1C[C@@H](n2ccc3c(N)ncnc32)[C@H](O)[C@@H]1O)[C@H]1C[C@H](CCc2nc3cc(OC(F)(F)F)ccc3[nH]2)C1` [Compound 57, (1R,2S,3R,5R)-3-(4-amino-7H-pyrrolo[2,3-d]pyrimidin-7-yl)-5-((methyl((1s,3R)-3-(2-(5-(trifluoromethoxy)-1H-benzo[d]imidazol-2-yl)ethyl)cyclobutyl)amino)methyl)cyclopentane-1,2-diol], the pIC50 was over 7.00.

As for `CN(C[C@H]1O[C@@H](n2cnc3c(N)ncnc32)[C@H](O)[C@@H]1O)[C@H]1C[C@@H](CCc2nc3cc(C4COC4)ccc3[nH]2)C1` [Compound 63], the pIC50 is 6.00 to 7.00.

Take `CN(C[C@@H]1C[C@@H](O)[C@H](n2ccc3c(N)ncnc32)C1)C1CC(CCc2nc3cc(Cl)c(C(F)(F)F)cc3[nH]2)C1` (stereo partly drawn) [Compound 17, (1R,2R,4S)-2-(4-amino-7H-pyrrolo[2,3-d]pyrimidin-7-yl)-4-(((3-(2-(5-chloro-6-(trifluoromethyl)-1H-benzo[d]imidazol-2-yl)ethyl)cyclobutyl) (methyl)amino)methyl) cyclopentanol]: the pIC50 is 6.00 to 7.00.

Turning to `CCN(C[C@H]1C[C@@H](n2ccc3c(N)ncnc32)[C@H](O)[C@@H]1O)[C@H]1C[C@@H](CCc2nc3cc(C(C)(C)C)ccc3[nH]2)C1` [Compound 38, (1R,2S,3R,5R)-3-(4-amino-7H-pyrrolo[2,3-d]pyrimidin-7-yl)-5-((((1r,3S)-3-(2-(5-(tert-butyl)-1H-benzo[d]imidazol-2-yl)ethyl)cyclobutyl)(ethyl)amino)methyl)cyclopentane-1,2-diol], the pIC50 is over 7.00.

For the compound `CN(C[C@H]1O[C@@H](n2ccc3c(N)ncnc32)[C@H](O)[C@@H]1O)[C@H]1C[C@H](CCc2nc3cc(OC(F)(F)F)ccc3[nH]2)C1` [Compound 95, (2R,3R,4S,5R)-2-(4-amino-7H-pyrrolo[2,3-d]pyrimidin-7-yl)-5-((methyl((1s,3R)-3-(2-(5-(trifluoromethoxy)-1H-benzo[d]imidazol-2-yl)ethyl)eyclobutyl)amino)methyl) tetrahydrofuran-3,4-diol], the pIC50 was over 7.00.

Regarding `CN(CC1CC(Cc2nc3cc(C(F)(F)F)ccc3[nH]2)C1)C[C@H]1C[C@@H](n2ccc3c(N)ncnc32)[C@H](O)[C@@H]1O` (stereo partly drawn) [Compound 18, (1R,2S,3R,5R)-3-{4-amino-7H-pyrrolo[2,3-d]pyrimidin-7-yl}-5-({methyl[(3-{[5-(trifluoromethyl)-1H-1,3-benzodiazol-2-yl]methyl}cyclobutyl)methyl]amino}methyl)cyclopentane-1,2-diol], the pIC50 was 6.00 to 7.00.

In the case of `CC(C)N(C[C@H]1O[C@@H](n2cnc3c(N)ncnc32)[C@H](O)[C@@H]1O)[C@H]1C[C@@H](CCc2nc3cc(CC(F)(F)F)ccc3[nH]2)C1` [Compound 124, (2R,3R,4S,5R)-2-(6-amino-9H-purin-9-yl)-5-((isopropyl((1r,3S)-3-(2-(5-(2,2,2-trifluoroethyl)-1H-benzo[d]imidazol-2-yl)ethyl)cyclobutyl)amino)methyl) tetrahydrofuran-3,4-diol], the pIC50 is over 7.00.

For `CN(C[C@H]1O[C@@H](n2cnc3c(N)ncnc32)[C@H](O)[C@@H]1O)[C@H]1C[C@H](CCc2nc3cc(C4COC4)ccc3[nH]2)C1` [Compound 65, (2R,3R,4S,5R)-2-(6-amino-9H-purin-9-yl)-5-((methyl((1s,3R)-3-(2-(5-(oxetan-3-yl)-1H-benzo[d]imidazol-2-yl)ethyl)cyclobutyl)amino)methyl)tetrahydrofuran-3,4-diol], the pIC50 was 6.00 to 7.00.

With `CCN(C[C@H]1O[C@@H](n2cnc3c(N)ncnc32)[C@H](O)[C@@H]1O)[C@H]1C[C@H](CCc2nc3cc(C(C)(C)C)ccc3[nH]2)C1` [Compound 74, (2R,3R,4S,5R)-2-(6-amino-9H-purin-9-yl)-5-((((1s,3R)-3-(2-(5-(tert-butyl)-1H-benzo[d]imidazol-2-yl)ethyl)cyclobutyl)(ethyl)amino)methyl)tetrahydrofuran-3,4-diol], the pIC50 was over 7.00.

With `CN(C[C@H]1O[C@@H](n2cnc3c(N)ncnc32)[C@H](O)[C@@H]1O)[C@H]1C[C@@H](CCc2nc3cc(C4(C#N)CC4)ccc3[nH]2)C1` [Compound 137, 1-(2-(2-((1S,3r)-3-((((2R,3S,4R,5R)-5-(6-amino-9H-purin-9-yl)-3,4-dihydroxytetrahydro-furan-2-yl)methyl)(methyl)amino)cyclobutyl)ethyl)-1H-benzo[d]imidazol-5-yl)cyclo-propanecarbonitrile], the pIC50 is over 7.00.

In the case of `CC(C)N(C[C@H]1O[C@@H](n2cnc3c(N)ncnc32)[C@H](O)[C@@H]1O)C1CC(CCc2nc3cc(C4(C#N)CCC4)ccc3[nH]2)C1` (stereo partly drawn) [Compound 117, 1-(2-(2-(3-((((2R,3S,4R,5R)-5-(6-amino-9H-purin-9-yl)-3,4-dihydroxytetrahydro-furan-2-yl)methyl)(isopropyl)amino)cyclobutyl)ethyl)-1H-benzo[d]imidazol-5-yl)cyclo-butanecarbonitrile], the pIC50 was over 7.00.

For `CN(C[C@H]1C[C@@H](n2ccc3c(N)ncnc32)[C@H](O)[C@@H]1O)C1CC(CCc2nc3cc(C4(C)CCC4)ccc3[nH]2)C1` (stereo partly drawn) [Compound 29, (1R,2S,3R,5R)-3-(4-amino-7H-pyrrolo[2,3-d]pyrimidin-7-yl)-5-((methyl(3-(2-(5-(1-methylcyclobutyl)-1H-benzo[d]imidazol-2-yl)ethyl)cyclobutyl)amino)methyl)cyclopentane-1,2-diol], the pIC50 is over 7.00.

Regarding `CC(C)CN(C[C@H]1C[C@@H](n2ccc3c(N)ncnc32)[C@H](O)[C@@H]1O)[C@H]1C[C@H](CCc2nc3cc(C(C)(C)C)ccc3[nH]2)C1` [Compound 48, (1R,2S,3R,5R)-3-(4-amino-7H-pyrrolo[2,3-d]pyrimidin-7-yl)-5-((((1s,3R)-3-(2-(5-(tert-butyl)-1H-benzo[d]imidazol-2-yl)ethyl)cyclobutyl)(isobutyl)amino)methyl)cyclopentane-1,2-diol], the pIC50 is over 7.00.

Turning to `CC(C)N(C[C@H]1C[C@@H](n2ccc3c(N)ncnc32)[C@H](O)[C@@H]1O)C1CC(CCc2nc3cc(OC(F)(F)F)ccc3[nH]2)C1` (stereo partly drawn) [Compound 56, (1R,2S,3R,5R)-3-(4-amino-7H-pyrrolo[2,3-d]pyrimidin-7-yl)-5-((isopropyl(3-(2-(5-(trifluoromethoxy)-1H-benzo[d]imidazol-2-yl)ethyl)cyclobutyl)amino)methyl)cyclopentane-1,2-diol], the pIC50 was over 7.00.

With `CN(C[C@H]1O[C@@H](n2cnc3c(N)ncnc32)[C@H](O)[C@@H]1O)[C@H]1C[C@H](CCc2nc3cc(OC(F)(F)F)ccc3[nH]2)C1` [Compound 97], the pIC50 is over 7.00.

The values are drawn from patent publication US8580762B2, “Substituted purine and 7-deazapurine compounds” (Epizyme, Inc., priority 2010, dated 2013).
